Test results: US20140235856A1, “FIBROBLASTS CELLULAR MODEL FOR ASSESSING EFFICACY OF CANCER TREATMENTS BY SHH/PTCH PATHWAY ANTAGONISTS” (CNRS, priority 2011, published 2014)

Test system: SHH/PTCH pathway (GLI1 mRNA) in NBCCS 6 E6/E7 fibroblasts
Experiment: Comparative Q-PCR analysis of GLI1 mRNA accumulation after treatment of fibroblast cell lines with purmorphamine
Type: cell-based, human
Settings: NBCCS 6 E6/E7 fibroblasts compared with CTRL E6/E7 fibroblasts, same experimental conditions; 0.1% DMSO; Q-PCR (FIG. 4)
Description: Human primary fibroblasts (named CTRL or NBCCS) were isolated from a healthy non photo-exposed skin biopsy of either a control patient or a patient with caracteristic NBCCS after informed consent (Otto et al., 1999; Valin et al., 2009)
The CTRL and NBCCS6 cell lines were then immortalized by retroviral transduction with pLE6/E7SN resulting in CTRL and NBCCS-E6-E7 (FIG. 1) (Halbert et al., 1991, 1992). Cells were grown at 37° C. in a humified atmosphere containing 5% CO2, DMEM medium, 50 U/ml penicillin, 50 μg/ml streptomycin, 0.125 μg/ml amphotericin B, 2 mM L-Glutamine, 1 mM Sodium pyruvate, 1× non essential amino acids.
Total RNA was extracted with RNeasy® Mini kit according to manufacturer's instructions (Qiagen, Hilden, Germany). Reverse transcription was performed on 1 μg total RNA with Superscript II Reverse Transcriptase (Roche Applied Science, Basel, Switzerland) by using random primers. Q-PCR was carried out using the 7900 HT Fast Real-Time PCR System (Applied Biosystems, Foster City, Calif., USA).
To evaluate small Molecules Modulators of the SHH/PTCH pathway, the Purmorphamine (SMO agonist) was used. Purmorphamine (SMO agonist) was diluted in DMSO at stock concentrations of 50 mM and 10 mM, respectively. To avoid side effects and toxicity, the final concentration of DMSO was fixed to 0.1% DMSO.

c1ccc2c(Oc3nc(Nc4ccc(N5CCOCC5)cc4)c4ncn(C5CCCCC5)c4n3)cccc2c1 [Purmorphamine]
GLI1 mRNA accumulation response, NBCCS 6 E6/E7 versus CTRL cells: 7 × times
